Several values for one entry are separate records, joined by “and”; a condition that tells them apart may be missing. Identical values can stand only once.
Assays:
[1] = biological target: T1, Human immunodeficiency virus type 1 integrase (Human immunodeficiency virus 1, UniProt Q7ZJM1); assay: Inhibition of HIV1 integrase strand transfer activity
[2] = biological target: T1, Human immunodeficiency virus type 1 integrase; assay: Inhibition of HIV1 integrase 3'-end processing activity
[3] = biological target: T1, Human immunodeficiency virus type 1 integrase; assay: Inhibition of HIV1 integrase strand transfer activity in presence of magnesium cofactor
[4] = biological target: T1, Human immunodeficiency virus type 1 integrase; assay: Inhibition of HIV1 integrase 3'-end processing activity in presence of magnesium cofactor

T1 sequence (Q7ZJM1 whole entry): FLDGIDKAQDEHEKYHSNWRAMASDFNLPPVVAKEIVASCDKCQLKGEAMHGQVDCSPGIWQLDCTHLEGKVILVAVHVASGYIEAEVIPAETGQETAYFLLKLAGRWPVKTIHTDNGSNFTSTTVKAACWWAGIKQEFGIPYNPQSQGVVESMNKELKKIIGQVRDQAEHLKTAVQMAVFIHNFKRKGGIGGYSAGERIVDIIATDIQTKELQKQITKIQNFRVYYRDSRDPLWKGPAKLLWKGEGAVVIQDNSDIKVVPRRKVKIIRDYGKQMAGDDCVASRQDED

| Structure (SMILES) | IC50 [1] | IC50 [2] | IC50 [3] [µM] | IC50 [4] [µM] |
| --- | --- | --- | --- | --- |
| Oc1ccc(-c2csc(Nc3ncccn3)n2)cc1O | 83 µM | 300 µM | – | – |
| O=C1Nc2ccccc2/C1=N/NC(=O)c1ccccc1O | 57 µM | > 100 µM | – | – |
| O=S(=O)(Nc1ccc(Br)cc1)c1ccc(Sc2ccc(S(=O)(=O)Nc3ccc(Br)cc3)cc2)cc1 | 251 µM | 161 µM | – | – |
| COc1cc(C(=O)/C=C/c2ccc3c(c2)OCO3)cc(OC)c1OC | > 100 µM | > 100 µM | – | – |
| CCCCCCc1nc2ccccc2c(=O)n1NC(=O)c1c(O)c2ccccc2n(CC)c1=O | > 100 µM | > 100 µM | – | – |
| COc1cc(C(NC(=O)c2ccco2)NC(=O)c2ccco2)ccc1OCc1ccccc1 | > 100 µM | > 100 µM | – | – |
| CCc1nc2sc3c(c2c2nnc(SCC(=O)NNC(=O)c4ccc(OC)cc4)n12)CCCC3 | 100 µM | > 100 µM | – | – |
| COc1cc(OC)c(C(=O)/C=C/c2cccc([N+](=O)[O-])c2)cc1OC | > 100 µM | > 100 µM | – | – |
| CCCc1nc2ccccc2c(=O)n1NC(=O)c1c(O)c2cccc3c2n(c1=O)CCC3 | 58 µM | 64 µM | – | – |
| CCCC(=O)NC(c1ccc(OC)c(OC)c1)c1cc(Cl)c2cccnc2c1O (configuration not stated) | 90 µM | > 100 µM | – | – |
| O=C(Nc1ccccc1C(=O)O)c1ccc(C(=O)Nc2ccccc2C(=O)O)cc1 | 32 µM | 67 µM | – | – |
| O=C(NNC(=O)c1c(O)c2ccccc2[nH]c1=O)c1ccccc1[N+](=O)[O-] | 46 µM | 54 µM | – | – |
| COc1ccc(NC(=O)CSc2nc(-c3ccncc3)nn2CC(=O)NCc2ccco2)cc1 | > 100 µM | > 100 µM | – | – |
| O=C(/C=C/c1ccccc1O)c1ccc(O)cc1O | 47 µM | 53 µM | – | – |
| O=C(O)c1ccc(NCN2C(=O)c3ccc([N+](=O)[O-])cc3C2=O)cc1 | 180 µM and 189 µM | 180 µM and 138 µM | – | – |
| COc1ccc(NC(=O)c2cccc(S(=O)(=O)Nc3ccc(C(=O)O)cc3)c2)cc1 | 70 µM | 80 µM | – | – |
| O=C(Nc1cccc(O)c1)c1cc(C(=O)Nc2cccc(O)c2)cc(N2C(=O)c3ccccc3C2=O)c1 | 100 µM | 100 µM | – | – |
| CCn1c(=O)c(C(=O)NNC(=O)c2ccc([N+](=O)[O-])cc2)c(O)c2ccccc21 | 20 µM | 32 µM | – | – |
| CCOc1ccc(-c2c(C#N)c(N)nc(SCC(=O)c3cc4cc(Br)cc(Br)c4oc3=O)c2C#N)cc1 | 4 µM | 6 µM | 9.6 | 17 |
| COc1cccc(C(=O)NNC(=O)c2ccc3ccccc3c2O)c1 | 33 µM | 42 µM | – | – |

| Structure (SMILES) | IC50 [1] | IC50 [2] | IC50 [3] [µM] | IC50 [4] [µM] |
| --- | --- | --- | --- | --- |
| Cn1c(=O)[nH]c(=O)c2c1nc(SCC(O)CCl)n2CC(O)COc1ccc(Cl)cc1 (configuration not stated) | > 100 µM | > 100 µM | – | – |
| CCN(CC)c1nc(N/N=C/c2ccc([N+](=O)[O-])cc2)nc(Nc2ccc(C)c(Cl)c2)n1 | 200 µM | 192 µM | – | – |
| O=C(Nc1nccs1)/C(O)=C/C(=O)c1ccc(Cl)cc1 | 70 µM | 95 µM | – | – |
| CCCOc1ccc(/C=N/NC2=NC(c3ccccc3O)CC(c3ccccc3)=N2)c(O)c1 (configuration not stated) | 60 µM | 64 µM | – | – |
| CCn1c(=O)c(C(=O)NNC(=O)c2ccccc2[N+](=O)[O-])c(O)c2ccccc21 | 30 µM | 36 µM | – | – |
| COc1cc([N+](=O)[O-])cc(/C=N/Nc2nc(Nc3ccccc3)nc(Nc3ccccc3)n2)c1O | 29 µM | 29 µM | – | – |
| Cn1c(SCC(=O)NNC(=O)c2cccc(O)c2)nc2sc3c(c2c1=O)CCC3 | 100 µM | 87 µM | – | – |
| O=[N+]([O-])c1cc(Br)cc(/C=N/Nc2nc(Nc3ccccc3)nc(Nc3ccccc3)n2)c1O | 0.6 µM | 1.9 µM | – | – |
| Nc1ccc(C(=O)CC(=O)Nc2cc(C(=O)O)cc(C(=O)O)c2)cc1 | 43 µM | 41 µM | – | – |
| O=C(CCC(=O)Nc1ccc([N+](=O)[O-])c(C(F)(F)F)c1)Nc1ccc([N+](=O)[O-])c(C(F)(F)F)c1 | 210 µM | 196 µM | – | – |
| Cc1ccc(NP(=O)(Oc2ccccc2)Oc2ccccc2)cc1 | > 1000 µM | > 1000 µM | – | – |
| Cc1nc(SCC(=O)c2ccc(O)c(O)c2)c(C#N)c(CC(C)C)c1C(N)=O | 85 µM | > 100 µM | – | – |
| CCCn1c(=O)c(C(=O)NNC(=O)CC(=O)OCC)c(O)c2ccccc21 | 48 µM | > 100 µM | – | – |
| O=C(CSc1nc2ccccc2c(=O)n1CC1CCCO1)NNC(=O)c1ccccc1O (configuration not stated) | 60 µM | 85 µM | – | – |
| Cc1ccc(NCC(=O)N/N=C/c2cccc(OC(=O)c3ccc4c(c3)OCO4)c2)cc1 | 731 µM | 670 µM | – | – |
| O=C(/C=C/c1ccc2c(c1)OCO2)c1ccccc1 | > 100 µM | > 100 µM | – | – |
| O=C(O)c1cc(-c2ccc(/C=N/Nc3nc4nonc4nc3Nc3ccccc3F)o2)ccc1Cl | 4 µM | 7 µM | – | – |
| CCCn1c(N/N=C/c2cc(Br)ccc2O)nc2c1c(=O)[nH]c(=O)n2C | 80 µM | > 100 µM | – | – |
| CCOc1cc(Br)cc(/C=N/c2ncccc2O)c1O | 81 µM | 143 µM | – | – |
| O=C(CNC(=O)c1ccc(Cl)cc1)OCC(=O)c1ccc([N+](=O)[O-])cc1 | 542 µM | 579 µM | – | – |

Source: ChEMBL document CHEMBL1139988, “Discovery of structurally diverse HIV-1 integrase inhibitors based on a chalcone pharmacophore” (Bioorg Med Chem, 2007)
